In the supplement of paper PMC10307832:

Experiments:
Assay in all cases: relative viability (nuclei count vs DMSO), 5 days (fraction); higher = more cells survive
ALW-II-49-7 + Tozasertib = compound: Cc1ccc(C(=O)Nc2cccc(C(F)(F)F)c2)cc1Nc1cncc(C(N)=O)c1 [ALW-II-49-7] + Cc1cc(Nc2cc(N3CCN(C)CC3)nc(Sc3ccc(NC(=O)C4CC4)cc3)n2)n[nH]1 [Tozasertib] (partner 0.1 µM)
Method in brief: (§1)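 The day after seeding in 1536-well plates, lung cancer cell lines were treated by pin tool with a single drug, or with a fixed anchor-drug dose together with five library-drug doses (not always all listed) in √10 steps. After 5 days, a combined fix-and-stain solution (final 0.05% Triton X-100, 1% formaldehyde, 1 ug/ml Hoechst) was added. Nuclei counted on 4× images gave relative viability as treated counts over vehicle counts, reported as the median of duplicate plates.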

XMD13-2 + Decitabine = compound: C1CC1C(=O)NC2=NNC3=C2C=CC(=C3)C4=CC(=CC=C4)C(=O)NC5CC5 [XMD13-2] + Nc1ncn([C@H]2C[C@H](O)[C@@H](CO)O2)c(=O)n1 [Decitabine] (partner 2 µM)
Method in brief: as §1

Dasatinib + Alpelisib = compound: Cc1nc(Nc2ncc(C(=O)Nc3c(C)cccc3Cl)s2)cc(N2CCN(CCO)CC2)n1 [Dasatinib] + Cc1nc(NC(=O)N2CCC[C@H]2C(N)=O)sc1-c1ccnc(C(C)(C)C(F)(F)F)c1 [Alpelisib] (partner 2 µM)
Method in brief: as §1

XMD13-2 + Olaparib = compound: C1CC1C(=O)NC2=NNC3=C2C=CC(=C3)C4=CC(=CC=C4)C(=O)NC5CC5 [XMD13-2] + O=C(c1cc(Cc2n[nH]c(=O)c3ccccc23)ccc1F)N1CCN(C(=O)C2CC2)CC1 [Olaparib] (partner 8 µM)
Method in brief: as §1

Cell Line	relative viability (ALW-II-49-7 + Tozasertib; first compound 0.08 µM)	relative viability (ALW-II-49-7 + Tozasertib; first compound 0.253 µM)	relative viability (ALW-II-49-7 + Tozasertib; first compound 0.8 µM)	relative viability (ALW-II-49-7 + Tozasertib; first compound 2.53 µM)	relative viability (ALW-II-49-7 + Tozasertib; first compound 8 µM)	relative viability (XMD13-2 + Decitabine; first compound 0.05 µM)	relative viability (XMD13-2 + Decitabine; first compound 0.1581 µM)	relative viability (XMD13-2 + Decitabine; first compound 0.5 µM)	relative viability (XMD13-2 + Decitabine; first compound 1.581 µM)	relative viability (XMD13-2 + Decitabine; first compound 5 µM)	relative viability (Dasatinib + Alpelisib; first compound 0.005 µM)	relative viability (Dasatinib + Alpelisib; first compound 0.01581 µM)	relative viability (Dasatinib + Alpelisib; first compound 0.05 µM)	relative viability (Dasatinib + Alpelisib; first compound 0.1581 µM)	relative viability (Dasatinib + Alpelisib; first compound 0.5 µM)	relative viability (XMD13-2 + Olaparib; first compound 0.05 µM)	relative viability (XMD13-2 + Olaparib; first compound 0.1581 µM)	relative viability (XMD13-2 + Olaparib; first compound 0.5 µM)	relative viability (XMD13-2 + Olaparib; first compound 1.581 µM)	relative viability (XMD13-2 + Olaparib; first compound 5 µM)
NCI-H1993	0.524	0.605	0.567	0.629	0.632	0.625	0.552	0.663	0.632	0.669	0.702	0.66	0.653	0.521	0.587	1.1	0.924	0.507	0.813	0.952
NCI-H2009	0.771	0.804	0.707	0.653	0.562	0.372	0.394	0.427	0.449	0.387	1.15	0.956	1.04	0.88	0.204	0.663	0.685	0.727	0.673	0.745
NCI-H2023	0.257	0.464	0.276	0.259	0.189	0.255	0.214	0.215	0.22	0.195	0.479	0.481	0.436	0.473	0.27	0.567	0.472	0.504	0.492	0.507
NCI-H2085	0.753	0.895	0.787	0.743	0.568	0.622	0.525	0.593	0.51	0.563	0.874	0.794	0.596	0.292	0.2	0.771	0.695	0.805	0.728	0.768
NCI-H2087	0.222	0.266	0.271	0.162	0.16	0.322	0.291	0.344	0.26	0.279	0.988	0.957	1.34	1.01	0.613	0.643	0.607	0.691	0.562	0.567
NCI-H2126	0.856	0.885	0.826	0.197	0.786	0.598	0.56	0.545	0.539	0.619	0.761	0.643	0.65	0.518	0.339	0.922	0.863	0.894	0.821	0.929
NCI-H2170	0.724	0.817	0.73	0.618	0.767	0.507	0.466	0.506	0.459	0.43	0.738	0.649	0.644	0.449	0.382	0.663	0.554	0.631	0.581	0.601
NCI-H2347	0.422	0.543	0.463	0.563	0.57	0.599	0.565	0.652	0.566	0.65	0.845	0.817	0.783	0.327	0.34	0.608	0.538	0.598	0.532	0.601
NCI-H2405	0.73	0.692	0.687	0.642	0.547	0.796	0.731	0.73	–	0.673	0.621	0.334	0.366	0.23	0.162	0.931	0.874	0.931	–	0.843
NCI-H3122	0.437	0.202	0.371	–	0.373	0.403	0.439	0.414	0.372	0.395	0.835	0.858	0.87	0.693	0.718	0.726	0.649	0.697	0.702	0.629
PC-3 [JPC-3]	0.653	0.946	0.867	0.776	0.843	0.794	0.892	0.851	–	0.842	1.08	1.09	1.12	0.966	0.477	1.16	1.12	1.12	–	1.05
PC-14	0.584	0.657	0.503	0.288	0.492	0.239	0.229	0.188	0.193	0.254	0.916	0.85	0.734	0.546	0.185	0.299	0.259	0.266	0.271	0.467
RERF-LC-KJ	0.442	0.524	0.461	0.506	0.321	0.813	0.747	0.711	0.702	0.713	0.823	0.496	0.665	0.614	0.432	0.971	0.917	0.928	0.983	0.985
SK-LU-1	0.323	0.391	0.295	0.289	0.242	0.569	0.601	0.746	0.616	0.628	0.623	0.399	0.318	0.2	0.234	0.499	0.444	0.514	0.444	0.422
SK-MES-1	0.878	0.986	0.843	0.844	0.568	0.429	0.409	0.373	0.339	0.455	0.991	–	0.713	0.474	0.251	0.906	0.646	0.804	0.73	0.761
SW 1573	0.187	0.248	0.186	0.196	0.151	0.775	0.464	0.608	0.498	0.431	0.596	0.524	0.438	0.302	0.241	0.66	0.479	0.497	0.395	0.287
